Molecular target: T1, human ΔF508-CFTR (Homo sapiens, UniProt P13569, DEL508-508)
T1 construct: expressed in transfected cells
Test: CFTR-YFP High Throughput Assay (YFP halide flux in FRT cells)
Type: cell-based
Settings: FRT cells expressing human ΔF508-CFTR and YFP; for EC50: forskolin stimulated
Summary of the method: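 FRT cells stably co-expressing human ΔF508-CFTR and halide-sensitive YFP-H148Q/I152L were treated with compound […] for 24–26 h at 37 °C (corrector mode), washed, then stimulated with 20 μM forskolin plus 30 μM potentiator P3 for 60–120 min at room temperature. Iodide-induced YFP quench (ex 500/em 540 nm) rates came from least-squares fitting.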

T1 sequence (P13569 with tags, fused parts or gaps DEL508-508): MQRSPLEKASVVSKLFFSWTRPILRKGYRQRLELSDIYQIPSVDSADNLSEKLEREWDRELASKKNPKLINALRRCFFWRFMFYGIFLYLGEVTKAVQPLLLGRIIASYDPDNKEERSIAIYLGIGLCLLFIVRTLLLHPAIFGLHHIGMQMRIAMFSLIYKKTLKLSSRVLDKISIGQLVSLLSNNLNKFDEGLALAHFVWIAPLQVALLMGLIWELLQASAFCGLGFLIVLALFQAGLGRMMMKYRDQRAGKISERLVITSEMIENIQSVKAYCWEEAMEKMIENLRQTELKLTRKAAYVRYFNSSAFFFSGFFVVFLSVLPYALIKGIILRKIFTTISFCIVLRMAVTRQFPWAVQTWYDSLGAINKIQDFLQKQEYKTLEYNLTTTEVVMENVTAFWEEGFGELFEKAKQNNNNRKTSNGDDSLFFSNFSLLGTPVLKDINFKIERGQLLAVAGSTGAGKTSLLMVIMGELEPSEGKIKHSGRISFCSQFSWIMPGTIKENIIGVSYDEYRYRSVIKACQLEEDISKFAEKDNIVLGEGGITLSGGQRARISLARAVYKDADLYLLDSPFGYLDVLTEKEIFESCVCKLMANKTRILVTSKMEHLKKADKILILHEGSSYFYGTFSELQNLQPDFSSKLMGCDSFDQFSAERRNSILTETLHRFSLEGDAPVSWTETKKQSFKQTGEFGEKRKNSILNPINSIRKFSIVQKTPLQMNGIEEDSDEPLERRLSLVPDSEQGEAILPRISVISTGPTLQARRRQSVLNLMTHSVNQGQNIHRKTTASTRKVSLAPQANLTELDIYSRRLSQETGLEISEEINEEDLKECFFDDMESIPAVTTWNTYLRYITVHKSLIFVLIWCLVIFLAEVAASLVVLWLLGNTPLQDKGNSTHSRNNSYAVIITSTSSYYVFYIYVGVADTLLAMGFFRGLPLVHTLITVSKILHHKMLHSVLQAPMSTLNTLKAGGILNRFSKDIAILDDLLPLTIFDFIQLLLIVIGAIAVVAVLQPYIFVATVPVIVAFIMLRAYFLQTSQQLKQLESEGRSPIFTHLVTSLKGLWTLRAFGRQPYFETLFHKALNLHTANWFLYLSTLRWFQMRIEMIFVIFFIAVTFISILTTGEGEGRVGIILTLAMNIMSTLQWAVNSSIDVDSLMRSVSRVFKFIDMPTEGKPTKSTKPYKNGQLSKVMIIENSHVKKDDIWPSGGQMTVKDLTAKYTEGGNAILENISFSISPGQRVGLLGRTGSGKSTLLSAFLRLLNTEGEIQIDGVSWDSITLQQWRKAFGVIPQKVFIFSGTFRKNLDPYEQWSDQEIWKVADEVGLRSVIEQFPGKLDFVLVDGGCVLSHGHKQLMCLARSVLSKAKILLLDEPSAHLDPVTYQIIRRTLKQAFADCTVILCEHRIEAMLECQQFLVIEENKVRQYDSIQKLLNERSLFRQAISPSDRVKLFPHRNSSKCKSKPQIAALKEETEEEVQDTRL

EC50 [µM] | % Efficacy (Emax normalized to the positive control) | Molecule
10 to 20 | – | CCN(C(=O)c1nn(-c2nc3ccccc3s2)c(=O)c2c1c1ccccc1n2C)c1ccccc1 [Example 123, 3-(benzo[d]thiazol-2-yl)-N-ethyl-5-methyl-4-oxo-N-phenyl-4,5-dihydro-3H-pyridazino[4,5-b]indole-1-carboxamide]
> 20 | – | CCN(C(=O)c1nn(-c2nc3ccccc3n2C)c(=O)c2c1c1ccccc1n2C)c1ccccc1 [Example 124, N-ethyl-5-methyl-3-(1-methyl-1H-benzo[d]imidazol-2-yl)-4-oxo-N-phenyl-4,5-dihydro-3H-pyridazino[4,5-b]indole-1-carboxamide]
< 10 | – | CCN(C(=O)c1nn(-c2ccccc2F)c(=O)c2c1c1ccccc1n2C)c1ccccc1 [Example 125, N-ethyl-3-(2-fluorophenyl)-5-methyl-4-oxo-N-phenyl-4,5-dihydro-3H-pyridazino[4,5-b]indole-1-carboxamide]
< 10 | – | CCN(C(=O)c1nn(-c2ccccc2)c(=O)c2c1c1ccccc1n2C)c1cccc(F)c1 [Example 126, N-ethyl-N-(3-fluorophenyl)-5-methyl-4-oxo-3-phenyl-4,5-dihydro-3H-pyridazino[4,5-b]indole-1-carboxamide]
< 10 | +++ (EMAX > 80%) | CCN(C(=O)c1nn(-c2ccccc2F)c(=O)c2c1c1ccccc1n2C)c1ccccc1 [Example 127, N-ethyl-3-(2-fluorophenyl)-5-methyl-4-oxo-N-phenyl-4,5-dihydro-3H-pyridazino[4,5-b]indole-1-carboxamide]
< 10 | – | CCN(C(=O)c1nn(-c2cnc3ccccc3c2)c(=O)c2c1c1ccccc1n2C)c1ccccc1 [Example 128, N-ethyl-5-methyl-4-oxo-N-phenyl-3-(quinolin-3-yl)-4,5-dihydro-3H-pyridazino[4,5-b]indole-1-carboxamide]
< 10 | – | CCN(C(=O)c1nn(-c2ccc(Cl)cc2)c(=O)c2c1c1ccccc1n2C)c1ccccc1 [Example 129, 3-(4-chlorophenyl)-N-ethyl-5-methyl-4-oxo-N-phenyl-4,5-dihydro-3H-pyridazino[4,5-b]indole-1-carboxamide]
< 10 | – | CCN(C(=O)c1nn(-c2ccc(OC)cc2)c(=O)c2c1c1ccccc1n2C)c1ccccc1 [Example 130, N-ethyl-3-(4-methoxyphenyl)-5-methyl-4-oxo-N-phenyl-4,5-dihydro-3H-pyridazino[4,5-b]indole-1-carboxamide]
< 10 | – | CCN(C(=O)c1nn(-c2ccc(C)cn2)c(=O)c2c1c1ccccc1n2C)c1ccccc1 [Example 131, N-ethyl-5-methyl-3-(5-methylpyridin-2-yl)-4-oxo-N-phenyl-4,5-dihydro-3H-pyridazino[4,5-b]indole-1-carboxamide]
< 10 | – | CCN(C(=O)c1nn(-c2ccccc2)c(=O)c2c1c1ccccc1n2C)c1cccc(Cl)c1 [Example 132, N-(3-chlorophenyl)-N-ethyl-5-methyl-4-oxo-3-phenyl-4,5-dihydro-3H-pyridazino[4,5-b]indole-1-carboxamide]
< 10 | – | CCN(C(=O)c1nn(-c2ccc(C)cc2)c(=O)c2c1c1ccccc1n2C)c1ccc2c(c1)OC(F)(F)O2 [Example 133, N-(2,2-difluorobenzo[d][1,3]dioxol-5-yl)-N-ethyl-5-methyl-4-oxo-3-(p-tolyl)-4,5-dihydro-3H-pyridazino[4,5-b]indole-1-carboxamide]
< 10 | – | CCN(C(=O)c1nn(-c2ccc(C)cc2)c(=O)c2c1c1ccccc1n2C)c1cc(Cl)ccc1C(=O)O [Example 134, 4-chloro-2-(N-ethyl-5-methyl-4-oxo-3-(p-tolyl)-4,5-dihydro-3H-pyridazino[4,5-b]indole-1-carboxamido)benzoic acid]
< 10 | – | Cc1ccc(-n2nc(C(=O)Nc3cc(Cl)ccc3C(=O)O)c3c4ccccc4n(C)c3c2=O)cc1 [Example 135, 4-chloro-2-(5-methyl-4-oxo-3-(p-tolyl)-4,5-dihydro-3H-pyridazino[4,5-b]indole-1-carboxamido)benzoic acid]
> 20 | – | CCN(C(=O)c1nn(Cc2ccccc2)c(=O)c2c1c1ccccc1n2C)c1ccccc1 [Example 136, 3-benzyl-N-ethyl-5-methyl-4-oxo-N-phenyl-4,5-dihydro-3H-pyridazino[4,5-b]indole-1-carboxamide]
< 10 | – | CCN(C(=O)c1nn(C2CCN(Cc3ccccc3)CC2)c(=O)c2c1c1ccccc1n2C)c1ccccc1 [Example 137, 3-(1-benzylpiperidin-4-yl)-N-ethyl-5-methyl-4-oxo-N-phenyl-4,5-dihydro-3H-pyridazino[4,5-b]indole-1-carboxamide]
< 10 | – | CCN(C(=O)c1nn(C(C)C)c(=O)c2c1c1ccccc1n2C)c1cccc(Cl)c1 [Example 140, N-(3-chlorophenyl)-N-ethyl-3-isopropyl-5-methyl-4-oxo-4,5-dihydro-3H-pyridazino[4,5-b]indole-1-carboxamide]

EC50 [µM] | % Efficacy (Emax normalized to the positive control) | Molecule
< 10 | – | CCN(C(=O)Cn1nc(C(=O)N(CC)c2cccc(Cl)c2)c2c3ccccc3n(C)c2c1=O)c1ccc2c(c1)OC(F)(F)O2 [Example 141, N-(3-chlorophenyl)-3-(2-((2,2-difluorobenzo[d][1,3]dioxol-5-yl)(ethyl)amino)-2-oxoethyl)-N-ethyl-5-methyl-4-oxo-4,5-dihydro-3H-pyridazino[4,5-b]indole-1-carboxamide]
< 10 | – | CCc1ccc(N(CC)C(=O)Cn2nc(C(=O)N(CC)c3cccc(Cl)c3)c3c4ccccc4n(C)c3c2=O)cc1 [Example 142, N-(3-chlorophenyl)-N-ethyl-3-(2-(ethyl(4-ethylphenyl)amino)-2-oxoethyl)-5-methyl-4-oxo-4,5-dihydro-3H-pyridazino[4,5-b]indole-1-carboxamide]
< 10 | – | CCN(C(=O)c1nn(C2CCCCC2)c(=O)c2c1c1ccccc1n2C)c1cccc(Cl)c1 [Example 143, N-(3-chlorophenyl)-3-cyclohexyl-N-ethyl-5-methyl-4-oxo-4,5-dihydro-3H-pyridazino[4,5-b]indole-1-carboxamide]
< 10 | – | CCN(C(=O)c1nn(C(C)C)c(=O)c2c1c1ccccc1n2C)c1cc(Cl)ccc1C#N [Example 144, N-(5-chloro-2-cyanophenyl)-N-ethyl-3-isopropyl-5-methyl-4-oxo-4,5-dihydro-3H-pyridazino[4,5-b]indole-1-carboxamide]
< 10 | – | CCN(CC)C(=O)c1nn(CC(=O)N(CC)c2ccc3c(c2)OC(F)(F)O3)c(=O)c2c1c1ccccc1n2C [Example 145, 3-(2-((2,2-difluorobenzo[d][1,3]dioxol-5-yl)(ethyl)amino)-2-oxoethyl)-N,N-diethyl-5-methyl-4-oxo-4,5-dihydro-3H-pyridazino[4,5-b] indole-1-carboxamide]
10 to 20 | – | CCN(C(=O)c1nn(-c2ccc(C)cc2)c(=O)c2c1c1ccccc1n2C1CCC1)c1ccccc1 [Example 146, 5-cyclobutyl-N-ethyl-4-oxo-N-phenyl-3-p-tolyl-4,5-dihydro-3H-pyridazino[4,5-b]indole-1-carboxamide]
< 10 | – | CCN(C(=O)c1nn(-c2ccc(C)cc2)c(=O)c2[nH]c3ccccc3c12)c1ccccc1 [Example 147, N-Ethyl-4-oxo-N-phenyl-3-p-tolyl-4,5-dihydro-3H-pyridazino[4,5-b]indole-1-carboxamide]
< 10 | – | CCN(C(=O)c1nn(-c2ccc(C)cc2)c(=O)c2[nH]c3ccccc3c12)c1cccc(Cl)c1 [Example 148, N-(3-chlorophenyl)-N-ethyl-4-oxo-3-(p-tolyl)-4,5-dihydro-3H-pyridazino[4,5-b]indole-1-carboxamide]
< 10 | – | CCN(C(=O)Cn1ncc2c([nH]c3ccccc32)c1=O)c1ccc2c(c1)OC(F)(F)O2 [Example 149, N-(2,2-difluorobenzo[d][1,3]dioxol-5-yl)-N-ethyl-2-(4-oxo-4,5-dihydro-3H-pyridazino[4,5-b]indol-3-yl)acetamide]
> 20 | – | CCN(C(=O)c1nn(-c2ccc(C)cc2)c(=O)c2c1c1ccccc1n2CC#N)c1ccccc1 [Example 150, 5-(cyanomethyl)-N-ethyl-4-oxo-N-phenyl-3-(p-tolyl)-4,5-dihydro-3H-pyridazino[4,5-b]indole-1-carboxamide]
> 20 | – | CCN(C(=O)c1nn(-c2ccc(C)cc2)c(=O)c2c1c1ccccc1n2CC(=O)O)c1ccccc1 [Example 151, 2-(1-(ethyl(phenyl)carbamoyl)-4-oxo-3-(p-tolyl)-3H-pyridazino[4,5-b]indol-5(4H)-yl)acetic acid]
> 20 | – | CCN(C(=O)c1nn(-c2ccc(C)cc2)c(=O)c2c1c1ccccc1n2C(C)C)c1ccccc1 [Example 152, N-ethyl-5-isopropyl-4-oxo-N-phenyl-3-(p-tolyl)-4,5-dihydro-3H-pyridazino[4,5-b]indole-1-carboxamide]
> 20 | – | CCN(C(=O)c1nn(-c2ccc(C)cc2)c(=O)c2c1c1ccccc1n2Cc1ccccn1)c1ccccc1 [Example 153, N-ethyl-4-oxo-N-phenyl-5-(pyridin-2-ylmethyl)-3-(p-tolyl)-4,5-dihydro-3H-pyridazino[4,5-b]indole-1-carboxamide]
> 20 | – | CCN(C(=O)Cn1nc(Cc2cccnc2)c2c3ccccc3n(C)c2c1=O)c1ccc2c(c1)OC(F)(F)O2 [Example 157, N-(2,2-difluorobenzo[d][1,3]dioxol-5-yl)-N-ethyl-2-(5-methyl-4-oxo-1-(pyridin-3-ylmethyl)-4,5-dihydro-3H-pyridazino[4,5-b]indol-3-yl)acetamide]
< 10 | ++ (a range of 80%-30%) | N-(2,2-difluorobenzo[d][1,3]dioxol-5-yl)-N-ethyl-2-(1-oxo-4-(4-sulfamoyl-phenyl)phthalazin-2(1H)-yl)acetamide [Example 17]
10 to 20 | ++ (a range of 80%-30%) | N-(2,2-difluorobenzo[d][1,3]dioxol-5-yl)-N-ethyl-2-(1-oxo-4-(pyridin-3-yl)phthalazin-2(1H)-yl)acetamide [Example 23]

Source: patent US9790215B2 (FLATLEY DISCOVERY LAB, LLC, priority 2013, dated 2017)
